The results in this text go back to patent publication US20110206607A1, “IMIDAZOL (1,2-A)PYRIDINES AND RELATED COMPOUNDS WITH ACTIVITY AT CANNABINOID CB2 RECEPTORS” (priority 2007, published 2011).

The target in this experiment is T1, human CB2 (Homo sapiens, UniProt P34972).
T1 construct: expressed in transfected cells; host or cells: HEK-293T (transient transfection, membrane preparation)
Description: CB2 receptor binding assay, block of [3H]-CP 55,940 binding. Particulars: membranes of HEK-293T cells transfected with human CB2 cDNA; 1.5 nM [3H]-CP 55,940. As for the experimental part: Membrane preparation—HEK-293T cells were cultured according to ATCC (Manassas, Va.) guidelines and transfected with human CB2 cDNA (SEQ ID NO:1) (Genbank X74328), operably linked to the SV40 promoter, using Polyfect (Qiagen, Valencia, Calif.) or Fugene (Roche, Nutley, N.J.) according to manufacturer's instructions. 48 h after transfection cells were harvested in ice cold membrane buffer (20 mM HEPES, 6 mM MgCl2, 1 mM EDTA, pH 7.2) using a cell scraper. Cells were transferred to a nitrogen cavitation chamber and a pressure of […] was applied for 30 min. The pressure was released and the cell debris was collected and centrifuged at 1000 g at 4° C. for 10 min. The supernatant was collected and the spin was repeated until the supernatant was free of precipitate. Membranes were then pelleted by centrifugation at 12.000 g at 4° C. for 20 min. Membranes were resuspended in an appropriate amount of membrane buffer. The membrane concentration was determined using a BioRad (Hercules, Calif.) protein assay dye reagent according to manufacturer's instructions. Membranes were diluted to 1 mg/ml and aliquots snap-frozen in liquid nitrogen and store at −80° C.
Binding assay—0.5-10 ng of membranes were incubated in binding buffer (50 mM Tris, 0.5 mM EDTA, 0.1% BSA, pH 7.4) in the presence of 1.5 nM radioligand ([^3H]-CP 55,940 Perkin Elmer) and varying concentrations of ligands (total volume 100 μL in a 96 well plate). Membranes were filtered onto a 96 well GF/B filterplate (Packard Bioscience, Shelton, Conn.) and washed with […] wash buffer (25 mM HEPES, 1 mM CaCl2, 5 mM MgCl2, 0.25M NaCl) using a Filtermate 196 Harvester (Packard Instruments, Downers Grove, Ill.). The filter plates were dried under a heat lamp before addition of 50 μL of scintillation fluid to each well (Microscint 20, Packard, Shelton, Conn.). Plates were counted on a Topcount NXT (Packard, Shelton, Conn.).
Data Analysis—Graphs were plotted and KD values were determined by nonlinear regression analysis using Prism software (GraphPad version 4.0, San Diego, Calif., USA).

Molecules are shown by their SMILES.

T1 sequence (P34972 whole entry): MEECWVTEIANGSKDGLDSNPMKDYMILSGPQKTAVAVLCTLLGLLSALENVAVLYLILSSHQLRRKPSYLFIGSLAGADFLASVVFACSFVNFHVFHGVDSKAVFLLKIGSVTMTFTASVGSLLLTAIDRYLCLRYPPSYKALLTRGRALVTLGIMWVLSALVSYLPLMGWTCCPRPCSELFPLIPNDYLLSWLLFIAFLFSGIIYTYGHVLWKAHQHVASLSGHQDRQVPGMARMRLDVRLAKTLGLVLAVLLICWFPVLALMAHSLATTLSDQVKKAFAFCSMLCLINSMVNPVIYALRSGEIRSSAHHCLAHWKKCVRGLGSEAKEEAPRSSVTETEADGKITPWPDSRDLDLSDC

As a reminder, the pKi is the Ki on a negative log10 scale, so that one unit is a factor of ten. Lower therefore signals a large Ki. On to `COc1cccc2nc(-c3c(F)ccc(OCF)c3F)c(Nc3ccc4c(c3)OCCO4)n12` [CR-1], for which the pKi amounted to 9.5.

In turn, `COc1cccc2nc(-c3c(F)ccc(O)c3Cl)c(Nc3ccc4c(c3)OCCO4)n12` [CR-2] returned a pKi of 8.6.

Compound `COc1cccc2nc(-c3c(F)cc(OCF)cc3F)c(Nc3ccc4c(c3)OCCO4)n12` [CR-3] came in with a pKi of 8.6.

`COc1cccc2nc(-c3c(F)ccc(O)c3F)c(Nc3ccc4c(c3)OCCO4)n12` [CR-4]: the negative-log Ki (pKi) is reported as 8.5.

`COc1cccc2nc(-c3c(C)cc(OCCO)cc3C)c(Nc3ccc4c(c3)OCCO4)n12` [CR-5] yielded a pKi of 8.3.

Take `Oc1cc(F)c(-c2nc3cccc(OCCF)n3c2Nc2ccc3c(c2)OCCO3)c(F)c1` [CR-6]: the negative-log Ki (pKi) was determined as 7.6.

In turn, `FCCOc1cccc2nc(-c3c(F)cncc3F)c(Nc3ccc4c(c3)OCCO4)n12` [CR-7] registered a negative-log Ki (pKi) of 7.4.

`FCCOc1cncc(F)c1-c1nc2cccc(OCCF)n2c1Nc1ccc2c(c1)OCCO2` [CR-8] registered a pKi of 6.6.

In the case of `COc1cccc2nc(-c3c(F)ccc(OCCF)c3Cl)c(Nc3ccc4c(c3)OCCO4)n12` [CR-9], the pKi worked out at 9.3.

As for `COc1cccc2nc(-c3c(Cl)ccc(OCF)c3F)c(Nc3ccc4c(c3)OCCO4)n12` [CR-10], the pKi worked out at 9.2.

As for `COc1cccc2nc(-c3c(F)ccc(OCF)c3Cl)c(Nc3ccc4c(c3)OCCO4)n12` [CR-11], the negative-log Ki (pKi) came out at 9.1. The pKi values of the last two compounds are within 0.2 log units of each other.

With `COc1cccc2nc(-c3c(F)ccc(OCCF)c3F)c(Nc3ccc4c(c3)OCCO4)n12` [CR-12], the pKi turned out to be 8.8.

The compound `COc1ccc2nc(-c3c(F)cccc3Cl)c(Nc3ccc4c(c3)OCCO4)n2c1` [CR-13] yielded a pKi of 8.7.

In turn, `COc1cccc2nc(-c3c(F)cccc3Cl)c(Nc3ccc4c(c3)OCCO4)n12` [CR-14] showed a pKi of 8.7.

`COc1cccc2nc(-c3c(F)cc(O)cc3F)c(Nc3ccc4c(c3)OCCO4)n12` [CR-15] yielded a pKi of 8.6. The pKi values of the last two compounds are within 0.2 log units of each other.

For `COc1ccc2nc(-c3c(F)ccc(OCF)c3Cl)c(Nc3ccc4c(c3)OCCO4)n2c1` [CR-16], the pKi is 8.6.

As for `COc1cccc2nc(-c3c(F)cc(OCCF)cc3F)c(Nc3ccc4c(c3)OCCO4)n12` [CR-17], the pKi amounted to 8.5.

Regarding `COc1cccc2nc(-c3c(Cl)cccc3Cl)c(Nc3ccc4c(c3)OCCO4)n12` [CR-18], the pKi was 8.4. The pKi values of the last two compounds are within 0.2 log units of each other.

`COc1cccc2nc(-c3c(F)cccc3F)c(Nc3ccc4c(c3)OCCO4)n12` [CR-19] registered a negative-log Ki (pKi) of 8.4.

Compound `COc1cccc2nc(-c3c(Cl)cncc3Cl)c(Nc3ccc4c(c3)OCCO4)n12` [CR-20] displayed a pKi of 8.4.

In the case of `COc1cccc2nc(-c3c(C)cc(OCCF)cc3C)c(Nc3ccc4c(c3)OCCO4)n12` [CR-21], the pKi was 8.3.

As for `COc1cccc2nc(-c3c(Cl)ncnc3Cl)c(Nc3ccc4c(c3)OCCO4)n12` [CR-22], the pKi worked out at 8.2.

For `COc1cccc2nc(-c3c(Cl)cc(O)cc3Cl)c(Nc3ccc4c(c3)OCCO4)n12` [CR-23], the pKi amounted to 8.2.

For `CCOc1cccc2nc(-c3c(F)cccc3Cl)c(Nc3ccc4c(c3)OCCO4)n12` [CR-24], the pKi worked out at 8.1.

Regarding `Cc1cccc2nc(-c3c(F)cccc3Cl)c(Nc3ccc4c(c3)OCCO4)n12` [CR-25], the pKi amounted to 8.0. The pKi values of the last two compounds are within 0.2 log units of each other.

For `Cc1cccc2nc(-c3c(F)cc(OCCF)cc3F)c(Nc3ccc4c(c3)OCCO4)n12` [CR-26], the pKi amounted to 7.9.

The compound `Cc1cc(O)cc(C)c1-c1nc2cccc(OCCF)n2c1Nc1ccc2c(c1)OCCO2` [CR-27] showed a pKi of 7.9.

`Cc1cccc2nc(-c3c(F)cc(O)cc3F)c(Nc3ccc4c(c3)OCCO4)n12` [CR-28] yielded a pKi of 7.9.

As for `CC(C)Oc1cccc2nc(-c3c(F)cccc3Cl)c(Nc3ccc4c(c3)OCCO4)n12` [CR-29], the pKi stood at 7.9.

Consider `C=COc1ccc2nc(-c3c(F)cccc3Cl)c(Nc3ccc4c(c3)OCCO4)n2c1` [CR-30], for which the pKi came out at 7.8.

`COc1cnc2nc(-c3c(F)cccc3Cl)c(Nc3ccc4c(c3)OCCO4)n2c1` [CR-31]: the pKi turned out to be 7.8.

As to `Cc1cccc2nc(-c3c(Cl)cccc3Cl)c(Nc3ccc4c(c3)OCCO4)n12` [CR-32], the pKi was 7.8.

In turn, `Cc1cc(O)cc(C)c1-c1nc2ccc(F)cn2c1Nc1ccc2c(c1)OCCO2` [CR-33] registered a pKi of 7.8.

For `COc1cccc2nc(-c3c(F)cncc3F)c(Nc3ccc4c(c3)OCCO4)n12` [CR-34], the pKi was determined as 7.8.

`Oc1cc(Cl)c(-c2nc3cccc(OCCF)n3c2Nc2ccc3c(c2)OCCO3)c(Cl)c1` [CR-35]: the pKi came to 7.8.

The compound `Cc1cc(OCCF)cc(C)c1-c1nc2cccc(F)n2c1Nc1ccc2c(c1)OCCO2` [CR-36] registered a pKi of 7.7.

For `FCCOc1cccc2nc(-c3c(F)cccc3Cl)c(Nc3ccc4c(c3)OCCO4)n12` [CR-37], the pKi was found to be 7.7.

As to `Fc1cccc(Cl)c1-c1nc2ccccn2c1Nc1ccc2c(c1)OCCO2` [CR-38], the pKi was found to be 7.7.

`Cc1ccc2nc(-c3c(Cl)cccc3Cl)c(Nc3ccc4c(c3)OCCO4)n2c1` [CR-39] came in with a pKi of 7.6. The pKi values of the last two compounds are within 0.2 log units of each other.

`Fc1ccc2nc(-c3c(F)cccc3Cl)c(Nc3ccc4c(c3)OCCO4)n2c1` [CR-40]: the pKi was 7.5. The pKi values of the last two compounds are within 0.2 log units of each other.

The compound `FCCOc1ccc2nc(-c3c(F)cccc3Cl)c(Nc3ccc4c(c3)OCCO4)n2c1` [CR-41] showed a pKi of 7.5.

Turning to `Cc1ccc2nc(-c3c(F)cccc3Cl)c(Nc3ccc4c(c3)OCCO4)n2c1` [CR-42], the pKi came out at 7.5.

Regarding `CNc1cccc2nc(-c3c(F)cccc3Cl)c(Nc3ccc4c(c3)OCCO4)n12` [CR-43], the pKi came out at 7.5.

In turn, `COc1ccc2nc(-c3c(F)cccc3Cl)c(Nc3ccc4c(c3)OCCO4)n2c1Cl` [CR-44] gave a pKi of 7.4. This pKi and that of the compound before are within 0.2 log units of each other.

The compound `CCc1cccc2nc(-c3c(F)cccc3Cl)c(Nc3ccc4c(c3)OCCO4)n12` [CR-45] showed a pKi of 7.4.

In turn, `Fc1cccc(Cl)c1-c1nc2ncccn2c1Nc1ccc2c(c1)OCCO2` [CR-46] had a pKi of 7.4.

Take `Cc1ccc2nc(-c3c(Cl)cccc3[N+](=O)[O-])c(Nc3ccc4c(c3)OCCO4)n2c1` [CR-47]: the negative-log Ki (pKi) is recorded as 7.4.

Consider `Cc1ccc2nc(-c3c(F)cccc3F)c(Nc3ccc4c(c3)OCCO4)n2c1` [CR-48], for which the pKi was 7.4.

With `Cc1ccc2nc(-c3c(C)cccc3C)c(Nc3ccc4c(c3)OCCO4)n2c1` [CR-49], the pKi was found to be 7.3. This pKi and that of the compound before are within 0.2 log units of each other.

Consider `Cc1cccn2c(Nc3ccc4c(c3)OCCO4)c(-c3c(F)cccc3Cl)nc12` [CR-50], for which the pKi is listed as 7.3.

In the case of `Cc1cccc(C)c1-c1nc2ccccn2c1Nc1ccc2c(c1)OCCO2` [CR-51], the pKi was 7.3.

Consider `Cc1cccc2nc(-c3c(F)cncc3F)c(Nc3ccc4c(c3)OCCO4)n12` [CR-52], for which the pKi is given as 7.3.

For the compound `Cc1cccc2nc(-c3c(F)cc(C#N)cc3F)c(Nc3ccc4c(c3)OCCO4)n12` [CR-53], the negative-log Ki (pKi) was found to be 7.3.

Compound `Cc1ccn2c(Nc3ccc4c(c3)OCCO4)c(-c3ccc(F)nc3)nc2c1` [CR-54] yielded a pKi of 5.2.

`Cc1ccn2c(Nc3ccc4c(c3)OCCO4)c(-c3c(F)cccc3Cl)nc2c1` [CR-55] gave a pKi of 7.3.

With `Fc1cccc(F)c1-c1nc2ccccn2c1Nc1ccc2c(c1)OCCO2` [CR-56], the pKi was found to be 7.3.

As to `Cc1cccc2nc(-c3ncccc3F)c(Nc3ccc4c(c3)OCCO4)n12` [CR-57], the pKi worked out at 7.2.
